In brackets after ≈: the same amount, converted by molar mass. Numbered stars: 1 amine (or outer) side, 2 acyl side, 3 side chain; on linkers, the order of the positions; unused ones are H or OH. Peptide text beside a SMILES is read from it. * marks the point of attachment. C20 diacid = O=C(O)CCCCCCCCCCCCCCCCCCC(=O)*; C18 diacid = O=C(O)CCCCCCCCCCCCCCCCC(=O)*; γGlu = O=C(O)[C@H](CCC(=O)[*:2])N[*:1]

One may read the solubility as how much of the substance goes into solution per volume. A high value points to much dissolved substance.

A short description of this data set: Assay (IV) determination of solubility. The data set is classed as physicochemical. On the procedure:
Assay (IV)—Determination of Solubility
The mimylin peptide was dissolved in water at ˜500 nmol/ml and mixed 1:1 with a series of buffers (100 mM glycylglycine pH 3.0, 100 mM glycylglycine pH 4.0, 100 mM glycylglycine pH 5.0, 100 mM bistrispropane pH 6.0, 100 mM bistrispropane pH 6.5, 100 mM bistrispropane pH 7.0, 100 mM bistrispropane pH 7.5, 100 mM bistrispropane pH 8.0).

Take `CC(C)C[C@H](NC(=O)[C@H](C)NC(=O)[C@H](C)NC(=O)[C@@H](NC(=O)[C@H](CO)NC(=O)[C@H](CC(C)C)NC(=O)[C@H](CCC(N)=O)NC(=O)[C@H](CO)NC(=O)[C@H](C)NC(=O)CC[C@H](NC(=O)CCCCCCCCCCCCCCCCC(=O)O)C(=O)O)[C@@H](C)O)C(=O)NCC(=O)N[C@@H](CCCNC(=N)N)C(=O)N[C@@H](CC(C)C)C(=O)N[C@@H](CO)C(=O)N[C@@H](C)C(=O)N[C@@H](CCC(=O)O)C(=O)N[C@@H](CC(C)C)C(=O)N[C@@H](Cc1cnc[nH]1)C(=O)N[C@@H](CCC(=O)O)C(=O)N[C@@H](CC(C)C)C(=O)N[C@@H](C)C(=O)N[C@H](C(=O)N[C@@H](CC(C)C)C(=O)N1CCC[C@H]1C(=O)N[C@@H](CCCNC(=N)N)C(=O)N[C@H](C(=O)N[C@@H](CCC(=O)O)C(=O)N[C@H](C(=O)NCC(=O)N[C@@H](CO)C(=O)NCC(=O)N[C@@H](CO)C(=O)N1CCC[C@H]1C(N)=O)[C@@H](C)O)[C@@H](C)O)[C@@H](C)O` [compound 78, [N-terminal(C18 diacid-gGlu), des1, 4Q, 30S, 31G]mimylin] ({C18 diacid-γGlu}-ASQLSTAALGRLSAELHELATLPRTETGSGSP-NH2): the Solubility result is, setting by setting: (pH 3.0) “≧200 μM”; (pH 4.0) “≧200 μM”; (pH 5.0) “≧200 μM”; (pH 6.0) “≧200 μM”; (pH 6.5) “≧200 μM”; (pH 7.0) “≧200 μM”. For the same compound, the Solubility result is, setting by setting: (pH 7.5) “≧200 μM”; (pH 8.0) “≧200 μM”.
Take `CC(C)C[C@H](NC(=O)CNC(=O)[C@H](CO)NC(=O)[C@H](C)NC(=O)CC[C@H](NC(=O)CCCCCCCCCCCCCCCCCCC(=O)O)C(=O)O)C(=O)N[C@@H](CO)C(=O)N[C@H](C(=O)N[C@@H](C)C(=O)N[C@@H](C)C(=O)N[C@@H](CC(C)C)C(=O)NCC(=O)N[C@@H](CCCNC(=N)N)C(=O)N[C@@H](CC(C)C)C(=O)N[C@@H](CO)C(=O)N[C@@H](C)C(=O)N[C@@H](CCC(=O)O)C(=O)N[C@@H](CC(C)C)C(=O)N[C@@H](Cc1cnc[nH]1)C(=O)N[C@@H](CCC(=O)O)C(=O)N[C@@H](CC(C)C)C(=O)N[C@@H](C)C(=O)N[C@H](C(=O)N[C@@H](Cc1ccc(O)cc1)C(=O)N1CCC[C@H]1C(=O)N[C@@H](CCCNC(=N)N)C(=O)N[C@H](C(=O)N[C@@H](CCC(=O)O)C(=O)N[C@H](C(=O)NCC(=O)N[C@@H](CO)C(=O)NCC(=O)N[C@@H](CO)C(=O)N1CCC[C@H]1C(N)=O)[C@@H](C)O)[C@@H](C)O)[C@@H](C)O)[C@@H](C)O` [compound 79, [N-terminal(C20 diacid-gGlu), des1, 4G, 23Y, 30S, 31G]mimylin] ({C20 diacid-γGlu}-ASGLSTAALGRLSAELHELATYPRTETGSGSP-NH2): the Solubility entry is on record as “≧200 μM” (pH 3.0); “≧200 μM” (pH 4.0); “≧200 μM” (pH 5.0); “≧200 μM” (pH 6.0); “≧200 μM” (pH 6.5); “≧200 μM” (pH 7.0). Besides, the Solubility entry is “≧200 μM” (pH 7.5) and “≧200 μM” (pH 8.0).
`CC(C)C[C@H](NC(=O)[C@H](C)NC(=O)[C@H](C)NC(=O)[C@@H](NC(=O)[C@H](CO)NC(=O)[C@H](CC(C)C)NC(=O)[C@H](CCC(=O)O)NC(=O)[C@H](CO)NC(=O)[C@H](C)NC(=O)CC[C@H](NC(=O)CCCCCCCCCCCCCCCCCCC(=O)O)C(=O)O)[C@@H](C)O)C(=O)NCC(=O)N[C@@H](CCCNC(=N)N)C(=O)N[C@@H](CC(C)C)C(=O)N[C@@H](CO)C(=O)N[C@@H](C)C(=O)N[C@@H](CCC(=O)O)C(=O)N[C@@H](CC(C)C)C(=O)N[C@@H](Cc1cnc[nH]1)C(=O)N[C@@H](CCC(=O)O)C(=O)N[C@@H](CC(C)C)C(=O)N[C@@H](C)C(=O)N[C@H](C(=O)N[C@@H](Cc1ccc(O)cc1)C(=O)N1CCC[C@H]1C(=O)N[C@@H](CCCNC(=N)N)C(=O)N[C@H](C(=O)N[C@@H](CCC(=O)O)C(=O)N[C@H](C(=O)NCC(=O)N[C@@H](CO)C(=O)NCC(=O)N[C@@H](CO)C(=O)N[C@@H](Cc1ccc(O)cc1)C(N)=O)[C@@H](C)O)[C@@H](C)O)[C@@H](C)O` [compound 80, [N-terminal(C20 diacid-gGlu), des1, 23Y, 30S, 31G, 33Y]mimylin] ({C20 diacid-γGlu}-ASELSTAALGRLSAELHELATYPRTETGSGSY-NH2): the Solubility entry runs as follows: (pH 3.0) “≧200 μM”; (pH 4.0) “≧200 μM”; (pH 6.0) “≧200 μM”; (pH 6.5) “≧200 μM”; (pH 7.0) “≧200 μM”; (pH 7.5) “≧200 μM”. Moreover, where the note is “pH 8.0”, the Solubility result was “≧200 μM”. The solubility at 18 h (pH 5.0) was 10 µM (≈ 37.9 µg/mL).
`CC(C)C[C@H](NC(=O)[C@H](C)NC(=O)[C@H](C)NC(=O)[C@@H](NC(=O)[C@H](CO)NC(=O)[C@H](CC(C)C)NC(=O)[C@H](CCC(=O)O)NC(=O)[C@H](CO)NC(=O)[C@H](C)NC(=O)CC[C@H](NC(=O)CCCCCCCCCCCCCCCCCCC(=O)O)C(=O)O)[C@@H](C)O)C(=O)NCC(=O)N[C@@H](CCCNC(=N)N)C(=O)N[C@@H](CC(C)C)C(=O)N[C@@H](CO)C(=O)N[C@@H](C)C(=O)N[C@@H](CCC(=O)O)C(=O)N[C@@H](CC(C)C)C(=O)N[C@@H](Cc1cnc[nH]1)C(=O)N[C@@H](CCC(=O)O)C(=O)N[C@@H](CC(C)C)C(=O)N[C@@H](CO)C(=O)N[C@H](C(=O)N[C@@H](Cc1ccc(O)cc1)C(=O)N1CCC[C@H]1C(=O)N[C@@H](CCCNC(=N)N)C(=O)N[C@H](C(=O)N[C@@H](CCC(=O)O)C(=O)N[C@H](C(=O)NCC(=O)N[C@@H](CO)C(=O)NCC(=O)N[C@@H](CO)C(=O)N1CCC[C@H]1C(N)=O)[C@@H](C)O)[C@@H](C)O)[C@@H](C)O` [compound 82, [N-terminal(C20 diacid-gGlu), des1, 21S, 23Y, 30S, 31G]mimylin] ({C20 diacid-γGlu}-ASELSTAALGRLSAELHELSTYPRTETGSGSP-NH2): the Solubility entry was “≧200 μM” (pH 3.0); “≧200 μM” (pH 4.0); “≧200 μM” (pH 6.0); “≧200 μM” (pH 6.5); “≧200 μM” (pH 7.0); “≧200 μM” (pH 7.5). Under “pH 8.0”, the Solubility result is “≧200 μM”. The compound further had a solubility at 18 h (pH 5.0) of 1 µM (≈ 3.74 µg/mL).
For the compound `CC(C)C[C@H](NC(=O)[C@H](C)NC(=O)[C@H](C)NC(=O)[C@@H](NC(=O)[C@H](CO)NC(=O)[C@H](CC(C)C)NC(=O)[C@H](CCC(=O)O)NC(=O)[C@H](CO)NC(=O)[C@H](C)NC(=O)[C@H](C)NC(=O)[C@H](CCC(=O)O)NC(=O)CC[C@H](NC(=O)CCCCCCCCCCCCCCCCCCC(=O)O)C(=O)O)[C@@H](C)O)C(=O)NCC(=O)N[C@@H](CCCNC(=N)N)C(=O)N[C@@H](CC(C)C)C(=O)N[C@@H](CO)C(=O)N[C@@H](C)C(=O)N[C@@H](CCC(=O)O)C(=O)N[C@@H](CC(C)C)C(=O)N[C@@H](Cc1cnc[nH]1)C(=O)N[C@@H](CCC(=O)O)C(=O)N[C@@H](CC(C)C)C(=O)N[C@@H](C)C(=O)N[C@H](C(=O)N[C@@H](Cc1ccc(O)cc1)C(=O)N1CCC[C@H]1C(=O)N[C@@H](CCCNC(=N)N)C(=O)N[C@H](C(=O)N[C@@H](CCC(=O)O)C(=O)N[C@H](C(=O)NCC(=O)N[C@@H](CO)C(=O)NCC(=O)N[C@@H](CO)C(=O)N1CCC[C@H]1C(N)=O)[C@@H](C)O)[C@@H](C)O)[C@@H](C)O` [compound 83, [N-terminal(C20 diacid-gGlu), −1E, 1A, 23Y, 30S, 31G]mimylin] ({C20 diacid-γGlu}-EAASELSTAALGRLSAELHELATYPRTETGSGSP-NH2), the Solubility entry reads like this: (pH 3.0) “≧200 μM”; (pH 4.0) “≧200 μM”; (pH 5.0) “≧200 μM”; (pH 6.0) “≧200 μM”; (pH 6.5) “≧200 μM”; (pH 7.0) “≧200 μM”. For the same compound, the Solubility result is, setting by setting: (pH 7.5) “≧200 μM”; (pH 8.0) “≧200 μM”.
With `CC(C)C[C@H](NC(=O)[C@H](C)NC(=O)[C@H](C)NC(=O)[C@@H](NC(=O)[C@H](CO)NC(=O)[C@H](CC(C)C)NC(=O)[C@H](CCC(=O)O)NC(=O)[C@H](CO)NC(=O)[C@H](C)NC(=O)CC[C@H](NC(=O)CCCCCCCCCCCCCCCCCCC(=O)O)C(=O)O)[C@@H](C)O)C(=O)NCC(=O)N[C@@H](Cc1cnc[nH]1)C(=O)N[C@@H](CC(C)C)C(=O)N[C@@H](CO)C(=O)N[C@@H](C)C(=O)N[C@@H](CCC(=O)O)C(=O)N[C@@H](CC(C)C)C(=O)N[C@@H](Cc1cnc[nH]1)C(=O)N[C@@H](CCC(=O)O)C(=O)N[C@@H](CC(C)C)C(=O)N[C@@H](C)C(=O)N[C@H](C(=O)N[C@@H](CC(C)C)C(=O)N1CCC[C@H]1C(=O)N[C@@H](Cc1cnc[nH]1)C(=O)N[C@H](C(=O)N[C@@H](CCC(=O)O)C(=O)N[C@H](C(=O)NCC(=O)N[C@@H](CO)C(=O)NCC(=O)N[C@@H](CO)C(=O)N1CCC[C@H]1C(N)=O)[C@@H](C)O)[C@@H](C)O)[C@@H](C)O` [compound 84, [N-terminal(C20 diacid-gGlu), des1, 12H, 25H, 30S, 31G]mimylin] ({C20 diacid-γGlu}-ASELSTAALGHLSAELHELATLPHTETGSGSP-NH2), the Solubility result by setting is: (pH 3.0) “≧200 μM”; (pH 4.0) “≧200 μM”; (pH 5.0) “≧200 μM”; (pH 6.0) “≧200 μM”; (pH 6.5) “≧200 μM”; (pH 7.0) “≧200 μM”. For the same compound, the Solubility entry was “≧200 μM” (pH 7.5) and “≧200 μM” (pH 8.0).
